The record followed here is US11815511B2 (priority 2019, dated 2023).

The assay relates to anti-4,15-diacetoxyscirpenol monoclonal antibody secreted by hybridoma cell strain DAS5G11E7. The format is binding, mouse. To be noted: in ng/mL.
With 3-acetyldeoxynivalenol [3-acetyl-DON], the IC50 is >100,000.
With `CC1=C[C@H]2O[C@@H]3[C@H](O)C[C@](C)([C@@]2(CO)[C@H](O)C1=O)[C@]31CO1` [DON, Deoxynivalenol], the IC50 is on record as >100,000.
In the case of `C[C@@H]1Cc2c(Cl)cc(C(=O)N[C@@H](Cc3ccccc3)C(=O)O)c(O)c2C(=O)O1` [OTA, ochratoxin] it was >100,000.
The figure for HT-2 toxin is >100,000.
